Data from paper PMC3923439, “Anti-inflammatory properties of a novel peptide interleukin 1 receptor antagonist” (Journal of Neuroinflammation, 2014).

Assays:
[1] = tested on: neonatal rat pancreatic islets; test: IL-1β-induced rat islet cell apoptosis (cell death detection ELISA); type: cell-based; conditions: rat islets, 8.68 nM (150 pg/ml) IL-1β, 24 hours
Procedure: Neonatal rat islets were isolated from 3- to 6-day-old outbred Wistar rats (Taconic, Ejby, Denmark) as previously described. Islets were precultured and maintained in RPMI 1640 medium (Gibco/Life Technologies) supplemented with 20 mmol/L HEPES buffer, 0.038% (wt/vol) NaHCO3, 100 U/ml penicillin, 100 µg/ml streptomycin and 10% (vol/vol) newborn calf serum (NCS) at 37°C in humidified atmospheric air. Prior to experimentation, the islets were randomly distributed to 24-well dishes and incubated for 2 hours in RPMI 1640 medium supplemented as described above, but with 0.5% (vol/vol) NCS relevant reagents were added as indicated.
(§1) For cell death detection, rat islets were incubated with 150 pg/ml IL-1β (BD Pharmingen, San Diego, CA, USA) alone or in combination with various concentrations of Ana and Ilantide for 24 hours at 37°C in humidified atmospheric air. Rat islet cell death was assessed by cell death detection ELISA (Roche, Lund, Sweden) as previously described. As a surrogate measure of nitric oxide production, Griess reagent (1:1 aqueous mixture of 0.1% naphthylethylenediamine hydrochloride and 1% sulfanilamide + 5% H3PO4) was mixed in a 1:1 ratio with 100 μl of supernatant samples to determine the nitrite content in supernatants from the cell death assays described above.
Figure 7 Effect of Ilantide on interleukin 1β-induced rat islet cell apoptosis. Rat pancreatic islets were preincubated for 30 minutes in the absence or presence of various concentrations of anakinra (A), Ilantide-m (B) or Ilantide-t (C) and then exposed to […] interleukin 1β (IL-1β) for 24 hours. Cytokine-induced apoptosis was determined by cell death detection enzyme-linked immunosorbent assay. Apoptosis rates are presented as fold induction compared with untreated control islets (white bars). The data from four independent experiments are presented as mean ± SEM. *P < 0.05 and **P < 0.01 compared with cultures treated with IL-1β alone (one-way analysis of variance followed by Dunnett’s post hoc test).

[2] = tested on: LPS-induced neuroinflammation; test: Lipopolysaccharide-induced impairment of social behavior; type: in vivo; conditions: rat, Ana 100 mg/kg s.c.
Procedure: The peripheral administration of LPS, the active fragment of bacterial endotoxin, results in an increase in the plasma levels of all proinflammatory cytokines and behavioral depression. LPS-induced behavioral depression was assessed by measuring the reduction of the duration of social interaction during 4-minute sessions. Six- to seven-week-old rats were handled for five days, habituated to the test cages and the experiment room and trained for social interaction with three-week-old juvenile rats introduced into the test cage for four minutes two days before the actual experiment. On the day of the experiment, the rats were intraperitoneally injected (i.p.) with saline or LPS (Escherichia coli 0111:B4; Sigma-Aldrich) dissolved in saline (250 μg/kg). Immediately after the i.p. injection, Ilantide-t (Ila; 10 mg/kg, equivalent to 2.1 μmol/kg), Ana ([…], equivalent to 5.8 μmol/kg) or saline was injected subcutaneously. The volume of all of the injections was 1.0 ml/kg. Six experimental groups were used: vehicle i.p./vehicle s.c. (veh/veh; n = 10), vehicle i.p./Ilantide-t s.c. (veh/Ila; n = 8), vehicle i.p./Ana s.c. (veh/Ana; n = 9), LPS i.p./vehicle s.c. (LPS/veh; n = 10), LPS i.p./Ilantide-t s.c. (LPS/Ila; n = 11) and LPS i.p./Ana s.c. (LPS/Ana; n = 11). The injections and weighing of the rats were performed immediately after the first test session (0 h), and the animals were tested and weighed again 2, 4, 6, 8, and 24 hours later. Different juvenile animals were presented on each occasion. Social interaction consisted of anogenital sniffing, licking and chewing the fur of the juveniles by the experimental animals and was monitored with a video camera. […] The duration of social interaction at each time point is expressed as the percentage of baseline values and was averaged for each experimental group. Social interaction was scored by an observer who was blinded to the treatment of the animals. For evaluation of levels of pro- and anti-inflammatory cytokines in blood, rats were injected with LPS and then immediately with either vehicle (n = 8) or Ilantide-t (n = 8) as described above. In addition, a control group of animals (n = 4) was treated with Ilantide-t alone (control). Blood samples were collected at 0, 2 and 6 hours after injections as described for the pharmacokinetics study and stored at -20°C until use. The levels of IL-6, IFN-γ and IL-10 were determined using corresponding rat ELISA kits according to the manufacturer’s protocols (all from BD Biosciences, San Diego, CA, USA).

[3] = tested on: neonatal rat pancreatic islets; test: IL-1β-induced nitric oxide production (nitrite, Griess reagent); type: cell-based; conditions: nitrites in supernatants of the apoptosis experiments, four independent experiments
Procedure: as §1
Figure 8 Effect of Ilantide on interleukin 1β-induced nitric oxide production. Anakinra (A) but none of the peptides, Ilantide-m (B) or Ilantide-t (C), inhibited interleukin 1β (IL-1β)-induced nitric oxide production. The results of four independent experiments are shown. *P < 0.05 and **P < 0.01 compared with cultures treated with IL-1 alone (one-way analysis of variance followed by Dunnett’s post hoc test).

Ana: recombinantly produced N-terminal methionylated, nonglycosylated version of human IL-1Ra [reference compound]
Concentration giving maximal inhibition of IL-1β-induced apoptosis [1]: 86.8 µM
Maximal inhibition of IL-1β-induced apoptosis ([1]; 30 minutes preincubation, four independent experiments): 64%
Effect on LPS-induced body weight decrease ([2]; 24 hours after LPS 250 μg/kg i.p., Ilantide-t 10 mg/kg, P < 0.05): attenuated the anorexigenic effect of LPS
Social behavior per se (without LPS) ([2]; Ilantide-t 10 mg/kg s.c., vehicle i.p.): did not modify social behavior per se
Effect on LPS-induced depression of social activity (sickness behavior) ([2]; LPS 250 μg/kg i.p., Ilantide-t 10 mg/kg s.c., 2 to 24 hours): No significant effect
Inhibition of IL-1β-induced nitric oxide production [3]: inhibited
